Measurements: patent US9675627B2, “Dosing regimens for treating and/or preventing cerebral amyloidoses” (Amicus Therapeutics, Inc., priority 2014, dated 2017)

Assays:
β-galactosidase (β-Gal) = target: T1, β-galactosidase (β-Gal) (Homo sapiens, UniProt P16278); test: Selectivity: beta-galactosidase activity in fibroblast lysate; assay type: biochemical; settings: 10 μM, the highest concentration tested
T1 construct: wild-type fibroblast (CRL2076) pellets (˜2.5e6 cells/pellet) were lysed; host or cells: wild-type fibroblasts CRL2076, lysate
T1 sequence (P16278 29-677): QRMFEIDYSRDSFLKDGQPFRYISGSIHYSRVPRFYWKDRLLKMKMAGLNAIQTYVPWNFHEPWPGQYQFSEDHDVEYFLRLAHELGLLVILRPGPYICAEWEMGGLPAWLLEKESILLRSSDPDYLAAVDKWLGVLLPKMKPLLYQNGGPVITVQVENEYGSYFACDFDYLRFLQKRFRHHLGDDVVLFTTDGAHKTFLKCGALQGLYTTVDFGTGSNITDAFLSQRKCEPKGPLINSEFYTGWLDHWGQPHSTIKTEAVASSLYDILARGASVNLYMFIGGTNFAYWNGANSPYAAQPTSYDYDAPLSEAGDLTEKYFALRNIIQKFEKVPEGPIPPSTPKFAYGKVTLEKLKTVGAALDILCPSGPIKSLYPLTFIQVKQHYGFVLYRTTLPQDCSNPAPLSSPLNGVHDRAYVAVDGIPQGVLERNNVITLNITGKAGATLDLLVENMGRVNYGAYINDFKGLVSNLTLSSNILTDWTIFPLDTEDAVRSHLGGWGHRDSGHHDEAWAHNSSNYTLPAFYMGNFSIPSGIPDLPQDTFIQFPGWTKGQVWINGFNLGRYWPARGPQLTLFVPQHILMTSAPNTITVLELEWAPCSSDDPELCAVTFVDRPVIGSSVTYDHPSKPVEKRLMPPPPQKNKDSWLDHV
Text: (§1) Enzymatic activity measurements were done in duplicate.

β-hex [1] = test: Proof-of-concept study: brain β-hex levels; assay type: in vivo, Dutch APP^E693Q transgenic mice; settings: 3-month course
Experimental: (§2) The generation and characterization of Dutch APPE693Q mice transgenic mice is described in Gandy, S., et al. Days to criterion as an indicator of toxicity associated with human Alzheimer amyloid-beta oligomers. Annals of neurology 68, 220-230 (2010). 3-month-old male Dutch APP^E693Q mice transgenic mice were orally gavaged 5 days/week with either vehicle (water) (n=15) or 3, 10, 30 or 100 mg/kg AdDNJ for 3 months (n=13). All animal studies were approved and conducted in accordance with the Institutional Animal Care and Usage Committee. Mice were kept in a pathogen-free environment, on a 12-hour light/dark cycle and given ad libitum access to food and water. At 6 month of age treatment groups, and a 3-month-old untreated baseline group (n=15), were cognitively assessed in the NOR, EPM and FC tests. 48 hours following the final dose mice were perfused with ice-cold 1×PBS. The brain was removed and dissected into two hemispheres. One half was snap-frozen on dry ice and stored at −80° C. for biochemistry; the other half was post-fixed in 4% paraformaldehyde then sagittally sectioned on a vibratome into 30 μm sections and stored at 4° C. in storage buffer until histological analyses.

β-hex [2] = target: T2, β-hex (Mus musculus, UniProt P20060); test: Proof-of-concept study: brain β-hex levels; assay type: in vivo, Dutch APP^E693Q transgenic mice; settings: 3-month course, dose-dependent
T2 construct: from tissue; host or cells: brain of Dutch APP E693Q transgenic mice
T2 sequence (P20060 32-536): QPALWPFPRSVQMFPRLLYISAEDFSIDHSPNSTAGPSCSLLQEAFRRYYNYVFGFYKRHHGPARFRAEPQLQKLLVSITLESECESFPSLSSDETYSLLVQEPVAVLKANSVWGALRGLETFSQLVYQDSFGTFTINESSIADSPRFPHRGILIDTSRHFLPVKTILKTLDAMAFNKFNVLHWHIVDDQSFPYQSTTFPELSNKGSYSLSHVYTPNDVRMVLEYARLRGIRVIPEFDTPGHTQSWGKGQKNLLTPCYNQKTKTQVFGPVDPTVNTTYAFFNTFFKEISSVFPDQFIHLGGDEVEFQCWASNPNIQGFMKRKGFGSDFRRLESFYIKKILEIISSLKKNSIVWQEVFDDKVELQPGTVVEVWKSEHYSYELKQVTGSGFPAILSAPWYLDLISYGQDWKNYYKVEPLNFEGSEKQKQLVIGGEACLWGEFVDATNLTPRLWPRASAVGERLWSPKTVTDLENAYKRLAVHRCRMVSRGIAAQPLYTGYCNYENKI
Experimental: as §2

human skin fibroblasts = test: Cell viability, tetrazolium-formazan conversion; assay type: cell-based; settings: concentrations as high as 1 mM, up to 120 hours
Experimental: Viability of human fibroblast (CRL2076) and human neuroblastoma (SH-SY5Y) cells was tested after prolonged exposure to varying concentrations of AdDNJ. In a 96-well plate, fibroblasts were incubated in complete media containing increasing concentrations of AdDNJ up to 1 mM for either 72 or 120 hours at 37° C. in a humidified 8% CO2 incubator. Living cells were quantified using a tetrazoliuim-formazan conversion method according to the manufacturer's instructions (Promega Non-Radioactive 96-well Titer assay, TB112). SH-SY5Y cells were tested in the same manner as fibroblasts but plated in collagen-coated plates (Nunc #152036). After 24 hour, 48 hour and 120 hour exposure to AdDNJ, living SH-SY5Y cells were quantified as described above. All dosing concentrations were done in triplicate.

β-hex [3] = test: beta-hexosaminidase enhancement assay in fibroblasts; assay type: cell-based; settings: healthy human skin fibroblasts, 5 days, 95, 390 or 780 nM, dose-dependent
Text: as §1

[4] = tested on: Dutch APP^E693Q transgenic mice; test: Elevated plus maze (EPM); assay type: in vivo; settings: 3-month course, 3, 10, 30 or 100 mg/kg
Experimental: as §2, with “One half was snap-frozen on dry ice and stored at −80° C. for biochemistry; the other half was post-fixed in 4% paraformaldehyde then sagittally sectioned on a vibratome into 30 μm sections and stored at 4° C. in storage buffer until histological analyses.” left out
The maze in the configuration of a+ and comprised two open arms (35×5×0 cm) across from each other and perpendicular to two closed arms (35×5×16 cm) with a central neutral zone (Stoelting, Wood Dale, Ill.). […] Each trial was videotaped overhead and scored for amount of time spent in the open and closed arms using ANY-maze (Stoelting, Wood Dale, Ill.). […]

CC(=O)NC1CNC(CO)[C@@H](O)C1O (stereo partly shown) [AdDNJ, 2-acetamido-1,2-dideoxynojirimycin]
inhibition of β-galactosidase (β-Gal) (β-galactosidase (β-Gal)): did not inhibit
increase in total brain β-hex (β-hex [1]; 3-100 mg/kg oral 5 days/week, at the highest dose): up to 3 fold
brain β-hex A&S level (β-hex [1]; dose-dependent): increased
brain β-hex B level (β-hex [2]): increased
effect on cell viability (human skin fibroblasts): little or no effect on cell viability
increase in β-hex levels (β-hex [3]): up to 3 fold
anxiety in elevated plus maze [4]: reduced anxiety at all doses tested
